The values that follow are results of earlier work, collected in patent US7994157B2, “Method for dispersing plant sterol for beverage and a plant sterol-dispersed beverage, of which particle size is nanometer-scale in dispersed beverage” (KIP Biotech LLC, priority 2000, dated 2011).

This data set relates to serum cholesterol level. The following applies: applied form in an oil phase (margarine); U.S. Pat. No. 5,502,045.

Regarding sitostanol fatty acid ester, the “reduction of the LDL-C level” value was at most 16%.
